Source: PMC7998700, “Mycobacterial Epoxide Hydrolase EphD Is Inhibited by Urea and Thiourea Derivatives” (International Journal of Molecular Sciences, 2021)

Experiments:
EphE = EphE (Mycobacterium tuberculosis, UniProt I6YCQ4)
EphG = EphG (Mycobacterium tuberculosis, UniProt O33283)
EphD [1] = target: T1, EphD (Mycobacterium tuberculosis, UniProt P9WGS3)
EphA = EphA (Mycobacterium tuberculosis, UniProt I6YGS0)
EphB = EphB (Mycobacterium tuberculosis, UniProt I6YC03); experiment: radio-TLC substrate conversion to diol, E. coli lysate supernatant; type: biochemical; conditions: 50 mM Tris-HCl pH 7.5, 37 °C; labelled compound
EphF [2] = target: T2, EphF (Mycobacterium tuberculosis, UniProt P96811)
EphF [3] = target: T2, EphF; experiment: radio-TLC epoxide hydrolase assay, E. coli lysate supernatant; type: biochemical; conditions: substrate [14C]-9,10-cis-epoxystearic acid; 50 mM Tris-HCl pH 7.5, 37 °C, 15 min; without EthA; 2% DMSO
EphD [4] = target: T1, EphD; experiment: as above; type: biochemical; conditions: substrate [14C]-9,10-cis-epoxystearic acid; 50 mM Tris-HCl pH 7.5, 37 °C, 15 min; without EthA; 2% DMSO

T2 sequence (P96811 entry or part of it): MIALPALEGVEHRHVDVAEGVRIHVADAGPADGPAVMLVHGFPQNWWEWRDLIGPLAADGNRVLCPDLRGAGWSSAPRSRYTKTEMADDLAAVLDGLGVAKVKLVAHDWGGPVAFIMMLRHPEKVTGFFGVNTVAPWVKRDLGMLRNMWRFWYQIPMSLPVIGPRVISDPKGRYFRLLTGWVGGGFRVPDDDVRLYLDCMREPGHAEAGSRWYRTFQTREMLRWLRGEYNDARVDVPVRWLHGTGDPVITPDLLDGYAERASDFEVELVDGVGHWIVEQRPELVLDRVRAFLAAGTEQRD
T1 sequence (P9WGS3 whole entry): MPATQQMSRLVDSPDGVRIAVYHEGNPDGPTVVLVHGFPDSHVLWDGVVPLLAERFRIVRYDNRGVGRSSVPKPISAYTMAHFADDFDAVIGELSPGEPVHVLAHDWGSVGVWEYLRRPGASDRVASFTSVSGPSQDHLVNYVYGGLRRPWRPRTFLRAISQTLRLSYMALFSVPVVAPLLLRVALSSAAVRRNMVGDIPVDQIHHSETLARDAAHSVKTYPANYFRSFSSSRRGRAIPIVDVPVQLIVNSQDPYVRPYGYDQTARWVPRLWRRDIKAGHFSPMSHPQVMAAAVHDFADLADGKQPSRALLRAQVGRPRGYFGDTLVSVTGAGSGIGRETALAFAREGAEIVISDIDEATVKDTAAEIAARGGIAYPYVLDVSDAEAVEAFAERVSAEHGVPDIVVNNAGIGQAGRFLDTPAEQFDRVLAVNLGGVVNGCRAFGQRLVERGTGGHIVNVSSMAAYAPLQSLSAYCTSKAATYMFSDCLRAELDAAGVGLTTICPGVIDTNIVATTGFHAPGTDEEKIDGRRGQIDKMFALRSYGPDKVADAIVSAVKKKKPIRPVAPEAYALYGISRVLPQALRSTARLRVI
Chain of EphA (I6YGS0 whole entry): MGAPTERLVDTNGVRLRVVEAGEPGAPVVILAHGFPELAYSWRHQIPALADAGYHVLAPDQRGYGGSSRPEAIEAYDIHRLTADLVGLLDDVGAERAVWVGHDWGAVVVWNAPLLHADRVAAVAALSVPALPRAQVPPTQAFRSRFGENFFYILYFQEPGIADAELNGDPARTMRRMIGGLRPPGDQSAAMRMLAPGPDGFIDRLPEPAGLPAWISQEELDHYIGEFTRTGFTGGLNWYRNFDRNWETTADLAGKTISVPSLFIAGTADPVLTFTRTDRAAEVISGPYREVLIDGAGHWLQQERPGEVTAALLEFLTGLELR
Chain of EphG (O33283 whole entry): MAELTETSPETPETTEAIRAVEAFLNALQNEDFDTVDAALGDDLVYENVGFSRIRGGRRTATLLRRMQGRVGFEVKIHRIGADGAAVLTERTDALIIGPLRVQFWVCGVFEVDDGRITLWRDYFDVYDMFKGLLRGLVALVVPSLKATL
Chain of EphE (I6YCQ4 entry or part of it): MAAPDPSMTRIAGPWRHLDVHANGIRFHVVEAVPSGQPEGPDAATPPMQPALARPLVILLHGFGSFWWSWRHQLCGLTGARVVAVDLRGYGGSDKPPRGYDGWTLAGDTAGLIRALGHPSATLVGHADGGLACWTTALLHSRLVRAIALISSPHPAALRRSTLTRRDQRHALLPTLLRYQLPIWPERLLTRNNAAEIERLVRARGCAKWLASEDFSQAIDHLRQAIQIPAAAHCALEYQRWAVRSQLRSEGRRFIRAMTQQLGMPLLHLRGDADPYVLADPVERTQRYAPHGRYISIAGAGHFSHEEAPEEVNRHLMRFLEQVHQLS
Chain of EphB (I6YC03 whole entry): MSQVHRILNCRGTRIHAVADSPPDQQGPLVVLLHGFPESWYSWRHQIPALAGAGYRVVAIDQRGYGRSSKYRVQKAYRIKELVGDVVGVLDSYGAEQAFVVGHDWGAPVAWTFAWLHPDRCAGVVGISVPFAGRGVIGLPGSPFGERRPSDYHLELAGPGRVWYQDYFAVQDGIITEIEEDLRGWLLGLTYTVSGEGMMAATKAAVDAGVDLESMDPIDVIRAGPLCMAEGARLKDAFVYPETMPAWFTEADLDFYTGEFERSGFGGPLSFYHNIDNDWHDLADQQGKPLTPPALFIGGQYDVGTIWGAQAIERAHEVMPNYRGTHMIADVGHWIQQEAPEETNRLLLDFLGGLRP

Row | SMILES | radio-TLC substrate conversion to diol, E. coli lysate supernatant (EphE) | radio-TLC substrate conversion to diol, E. coli lysate supernatant (EphG) | radio-TLC substrate conversion to diol, E. coli lysate supernatant (EphD [1]) | radio-TLC substrate conversion to diol, E. coli lysate supernatant (EphA) | radio-TLC substrate conversion to diol, E. coli lysate supernatant (EphB) | radio-TLC substrate conversion to diol, E. coli lysate supernatant (EphF [2]) | % inhibition at 10 μg/mL (EphF [3]) | % inhibition at 10 μg/mL (EphD [4])
1 | CCCCCCCC[C@H]1O[C@H]1CCCCCCCC(=O)O [9,10-cis-epoxystearic acid] | The EH activity in each reaction was expressed as a substrate conversion percentage | The EH activity in each reaction was expressed as a substrate conversion percentage | The EH activity in each reaction was expressed as a substrate conversion percentage | The EH activity in each reaction was expressed as a substrate conversion percentage | The EH activity in each reaction was expressed as a substrate conversion percentage | The EH activity in each reaction was expressed as a substrate conversion percentage |  | 
2 | CC(C)CCOc1ccc(NC(=S)Nc2ccc(OCCC(C)C)cc2)cc1 [ISO, 4,4′-diisoamyloxydiphenylthiourea] |  |  |  |  |  |  | The activities of EphD and EphF are inhibited by ISO | The activities of EphD and EphF are inhibited by ISO
